Here are results for 18 compounds from patent publication US5521196A, “5-HT1F agonists for the treatment of migraine” (Eli Lilly and Company, priority 1994, dated 1996).

Counter-ions that a name gives are not always drawn.

What is called Ki is the dissociation constant of the complex between target and ligand, obtained from inhibition or displacement.

One assay deals with protein extravasation in the dura from stimulation of the trigeminal ganglion.
Assay: not given
To be noted: iv.
For `CCN(CC)C1CCc2cccc(Cl)c2C1.Cl` (stereo not drawn) [Compound IV, 8-chloro-2-diethylamino-1,2,3,4-tetrahydronaphthalene hydrochloride], the “Inhibition of Protein Extravasation, i.v. ID50” value came out at 1.2e-07 nmol/kg.
Take `CNS(=O)(=O)Cc1ccc2[nH]cc(CCN(C)C)c2c1.O=C(O)CCC(=O)O` [Compound I, 3-[2-(dimethylamino)ethyl]-N-methyl-1H-indole-5-methanesulfonamide butane-1,4-dioate (1:1)]: the “Inhibition of Protein Extravasation, i.v. ID50” value was determined as 2.6e-08 nmol/kg.

Another assay has as its system cephalic vascular smooth muscle.
Assay: not given
To be noted: cited from earlier work.
Turning to `CNS(=O)(=O)Cc1ccc2[nH]cc(CCN(C)C)c2c1.O=C(O)CCC(=O)O` [Compound I, 3-[2-(dimethylamino)ethyl]-N-methyl-1H-indole-5-methanesulfonamide butane-1,4-dioate (1:1)], the “contraction of cephalic vascular smooth muscle” value is given as “contract cephalic vascular smooth muscle”.

The subject of another assay is neurogenic inflammation.
Assay: not given
To be noted: in vivo; cited from earlier work.
Turning to `CNS(=O)(=O)Cc1ccc2[nH]cc(CCN(C)C)c2c1.O=C(O)CCC(=O)O` [Compound I, 3-[2-(dimethylamino)ethyl]-N-methyl-1H-indole-5-methanesulfonamide butane-1,4-dioate (1:1)], the “block of neurogenic inflammation” value is “blocked”.

Another assay deals with T1, 5-HT1F receptor (Homo sapiens, UniProt P30939).
T1 sequence (P30939 1-366): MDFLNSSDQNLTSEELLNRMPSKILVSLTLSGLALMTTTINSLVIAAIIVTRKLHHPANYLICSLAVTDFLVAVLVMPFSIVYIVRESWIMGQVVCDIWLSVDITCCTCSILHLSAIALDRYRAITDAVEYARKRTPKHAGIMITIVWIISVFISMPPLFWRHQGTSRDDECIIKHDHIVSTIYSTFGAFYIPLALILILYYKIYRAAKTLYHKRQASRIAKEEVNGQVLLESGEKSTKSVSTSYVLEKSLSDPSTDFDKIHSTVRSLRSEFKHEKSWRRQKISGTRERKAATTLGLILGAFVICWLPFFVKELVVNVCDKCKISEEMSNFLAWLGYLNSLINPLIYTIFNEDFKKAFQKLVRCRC
The assay can be described thus: biochemical. Conditions: Table I; displacement of 4.5-5.5 nM [3H]5-HT, 37° C., 30 minutes; read-out: 5-HT1F BINDING Ki.
Consider `Clc1ccc2[nH]cc(C3CCN(CCc4cnn(-c5ccc(Br)cc5)c4)CC3)c2c1` [Example 37, 5-chloro-3-<1-<2-<1-(4-bromophenyl)-1H-pyrazol-4-yl>ethyl>-4-piperidinyl>-1H-indole], for which the Ki amounted to 65.6 nM.
On the same count and under the same terms, the value for `COc1ccccc1-n1cc(CCN2CCC(c3c[nH]c4ccc(Cl)cc34)CC2)cn1` [Example 39, 5-chloro-3-<1-<2-<1-(2-methoxyphenyl)-1H-pyrazol-4-yl>ethyl>-4-piperidinyl>-1H-indole oxalate] was 63.5 nM; that for `Cc1cccc(-n2cc(CCN3CCC(c4c[nH]c5ccc(Cl)cc45)CC3)cn2)c1` [Example 42, 5-chloro-3-<1-<2-<1-(3-methylphenyl)-1H-pyrazol-4-yl>ethyl>-4-piperidinyl>- 1H-indole oxalate] was 43.2 nM.
In the case of `COc1ccc2[nH]cc(C3CCN(CCc4cnn(-c5ccccc5)c4)CC3)c2c1` [Example 27, 5-methoxy-3-<1-<2-<1-phenyl-1H-pyrazol-4-yl>ethyl>-4-piperidinyl>-1H-indoleoxalate], the inhibition constant (Ki) was 9.5 nM.
On the same count and under the same terms, the value for `Fc1ccc2[nH]cc(C3CCN(CCc4cccnc4)CC3)c2c1` [Example 47, 5-fluoro-3-<1-<2-<pyridin-3-yl>ethyl>-4-piperidinyl>-1H-indolehydrochloride monohydrate] was 115 nM; that for `CC(C)n1cc(CCN2CCC(c3c[nH]c4ccc(O)cc34)CC2)cn1` [Example 50, 5-hydroxy-3-<1-<2-<1-(1-methylethyl)-1H-pyrazol-4-yl>ethyl>-4-piperidinyl>-1H-indole] was 2.3 nM.
The same measure, in the same setting: the value for `Oc1ccc2[nH]cc(C3CCN(CCc4cnn(C5CCCCC5)c4)CC3)c2c1` [Example 51, 5-hydroxy-3-<1-<2-<1-cyclohexyl-1H-pyrazol-4-yl>ethyl>-4-piperidinyl>-1H-indole oxalate] was 4.4 nM; that for `Fc1ccc2[nH]cc(C3CCN(CCc4ccccn4)CC3)c2c1` [Example 45, 5-fluoro-3-<1-<2-<pyridin-2-yl>ethyl>-4-piperidinyl>-1H-indoledihydrochloride] was 27 nM; that for `Clc1ccc2[nH]cc(C3CCN(CCc4cnn(-c5cccc(Br)c5)c4)CC3)c2c1` [Example 36, 5-chloro-3-<1-<2-<1-(3-bromophenyl)-1H-pyrazol-4-yl>ethyl>-4-piperidinyl>-1H-indole oxalate] was 142 nM.
`Clc1cccc(-n2cc(CCN3CCC(c4c[nH]c5ccc(Cl)cc45)CC3)cn2)c1` [Example 33, 5-chloro-3-<1-<2-<1-(3-chlorophenyl)-1H-pyrazol-4-yl>ethyl>-4-piperidinyl>- 1H-indole oxalate]: the inhibitory constant (Ki) is 85.5 nM.
Take `Clc1ccc2[nH]cc(C3CCN(CCc4cnn(-c5ccccc5Br)c4)CC3)c2c1` [Example 35, 5-chloro-3-<1-<2-<1-(2-bromophenyl)-1H-pyrazol-4-yl>ethyl>-4-piperidinyl>-1H-indole oxalate]: the inhibition constant Ki amounted to 48.4 nM.
As for `Oc1ccc2[nH]cc(C3CCN(CCc4cnn(-c5ccccc5)c4)CC3)c2c1` [Example 52, 5-hydroxy-3-<1-<2-<1-phenyl-1H-pyrazol-4-yl>ethyl>-4-piperidinyl>-1H-indole], the Ki is 2.4 nM.
As for `NC(=O)c1ccc2[nH]cc(C3CCN(CCc4cnn(-c5ccccc5)c4)CC3)c2c1` [Example 28, 5-carboxamido-3-<1-<2-<1-phenyl-1H-pyrazol-4-yl>ethyl>-4-piperidinyl>-1H-indole], the Ki is 24 nM.
On the same count and under the same terms, in the case of `COc1ccc2[nH]cc(C3CCN(CCc4cnn(C)c4)CC3)c2c1` [Example 5, 5-methoxy-3-<1-<2-<1-methyl-1H-pyrazol-4-yl>ethyl>-4-piperidinyl>-1H-indoleoxalate] it was 9.9 nM; in that of `Cn1cc(CCN2CCC(c3c[nH]c4ccccc34)CC2)cn1` [Example 1, 3-<1-<2-<1-methyl-1H-pyrazol-4-yl>ethyl>-4-piperidinyl>-1H-indolehydrochloride], 5.7 nM.
As to `CCCn1cc(CCN2CCC(c3c[nH]c4ccc(Cl)cc34)CC2)cn1` [Example 14, 5-chloro-3-<1-<2-<1-propyl-1H-pyrazol-4-yl>ethyl>-4-piperidinyl>-1H-indoleoxalate], the Ki is 5.7 nM.

System in the next assay: not given
Assay: not given
Conditions: in vivo; cited from earlier work.
For the compound `CNS(=O)(=O)Cc1ccc2[nH]cc(CCN(C)C)c2c1.O=C(O)CCC(=O)O` [Compound I, 3-[2-(dimethylamino)ethyl]-N-methyl-1H-indole-5-methanesulfonamide butane-1,4-dioate (1:1)], the “effectiveness in the treatment of migraine” value is given as “effective in the treatment of migraine”.
